From PMC9500498 (Circulation research, 2021)
Each block holds one compound with its values, some of them ahead of it. Peptide text beside a SMILES is read from it.

How the values were obtained:
[1] = system: cardiomyocytes
[2] = system: CaMKIIδ-T287A; assay: Immunoprecipitation of CaM with CaMKIIδ-T287A; assay type: binding; settings: immunoprecipitation in the presence of CaM, n=15
[3] = system: pThr17-PLN; assay type: cell-based; settings: neonatal rat cardiomyocytes; Suppl. Fig. 6a–b
[4] = system: CaMKIIδ-T287A; assay: In vitro CaMKII kinase assay; assay type: biochemical; settings: CaM omitted; 32P incorporation into syntide, n=6
[5] = system: CaMKIIδ; assay: Overlay of 20-mer overlapping CaMKIIδ peptide arrays with biotinylated peptide; assay type: binding; settings: 20-mer overlapping CaMKIIδ peptides on membranes
[6] = system: CaMKIIδ-T287A; assay: CaMKIIδ-catalyzed phosphorylation of Thr17-PLN at 0.5 μM Ca2+, immunoblot; assay type: biochemical; settings: 0.5 μM free Ca2+
[7] = target: T1, CaMKIIδ-T287D (Homo sapiens, UniProt Q13557, T287D); assay: CaMKIIδ-T287D-catalyzed phosphorylation of biotin-ahx-PLN; assay type: biochemical; settings: biotin-ahx-PLN (1–30) as substrate, vs scrambled control peptide, n=7
[8] = system: Ca^2+/CaM; assay: ELISA-based binding of biotinylated peptide to CaM-coated wells; settings: biotinylated peptide vs scrambled control, n=6
[9] = target: T1, CaMKIIδ-T287D; settings: compared with AKAP18δ-N (55–98), Suppl. Fig. 2j–k
[10] = target: T2, CaM (Homo sapiens, UniProt P0DP23); assay: SPR of immobilized biotin-ahx-AKAP18δ; assay type: binding
[11] = target: T1, CaMKIIδ-T287D; assay: In vitro CaMKII kinase assay; assay type: biochemical; settings: 32P incorporation into syntide; compared among AKAP18δ-N sequences
[12] = target: T2, CaM; assay: CaM-agarose precipitation in the presence of Ca2+, immunoblot; assay type: binding; settings: Suppl. Fig. 4b–c

T1 sequence (Q13557 whole entry T287D): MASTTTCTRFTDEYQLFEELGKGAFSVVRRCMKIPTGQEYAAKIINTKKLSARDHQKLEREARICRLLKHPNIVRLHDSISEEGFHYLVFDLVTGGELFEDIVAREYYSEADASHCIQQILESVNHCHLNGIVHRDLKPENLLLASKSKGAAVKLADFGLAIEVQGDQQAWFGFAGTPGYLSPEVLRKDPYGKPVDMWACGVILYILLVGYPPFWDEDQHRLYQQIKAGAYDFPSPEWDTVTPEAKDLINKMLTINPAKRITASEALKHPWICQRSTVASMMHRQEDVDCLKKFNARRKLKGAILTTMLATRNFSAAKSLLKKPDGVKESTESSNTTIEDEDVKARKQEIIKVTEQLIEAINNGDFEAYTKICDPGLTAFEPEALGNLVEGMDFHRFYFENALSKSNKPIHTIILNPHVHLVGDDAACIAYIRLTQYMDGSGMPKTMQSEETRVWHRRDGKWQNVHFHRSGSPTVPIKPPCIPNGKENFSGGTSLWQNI

substrate phosphorylation by CaMKIIδ-T287A [4]: increased substrate phosphorylation
CaMKIIδ binding on peptide arrays [5]: too weak or dynamic to be detected
Compound: CC[C@H](C)[C@H](NC(=O)[C@H](CCC(N)=O)NC(=O)[C@H](Cc1ccc(O)cc1)NC(=O)[C@H](CC(C)C)NC(=O)[C@@H](NC(=O)[C@H](CCC(=O)O)NC(=O)[C@H](CCC(=O)O)NC(=O)CNC(=O)[C@H](Cc1ccccc1)NC(=O)[C@H](CCCNC(=N)N)NC(=O)[C@H](Cc1c[nH]cn1)NC(=O)[C@H](CC(=O)O)NC(=O)[C@@H](NC(=O)[C@H](Cc1ccccc1)NC(=O)[C@H](CCC(N)=O)NC(=O)[C@H](CCC(=O)O)NC(=O)[C@H](Cc1ccc(O)cc1)NC(=O)[C@H](CC(C)C)NC(=O)CNC(=O)[C@@H]1CCCN1C(=O)[C@H](CCC(=O)O)NC(=O)[C@@H](NC(=O)[C@H](CCCCN)NC(=O)[C@H](CCCNC(=N)N)NC(=O)[C@@H](NC(=O)CNC(=O)[C@H](CCCCN)NC(=O)[C@@H](N)CCCCN)C(C)C)[C@@H](C)CC)[C@@H](C)CC)[C@@H](C)CC)C(=O)N[C@@H](CC(=O)O)C(=O)O [AKAP18δ-C]
cytotoxicity (and changes at basal level) [1]: No cytotoxicity
trapping of CaM to CaMKIIδ-T287A [2]: induced trapping of CaM
pThr17-PLN level [3]: augmented
Thr17-PLN phosphorylation by CaMKIIδ-T287A [6]: further increased Thr17-PLN phosphorylation in the presence of either AKAP18δ-C (tendency)

Compound: CC[C@H](C)[C@H](NC(=O)[C@@H]1CCCN1C(=O)[C@@H](NC(=O)[C@H](CO)NC(=O)[C@H](CC(C)C)NC(=O)[C@H](Cc1ccccc1)NC(=O)[C@H](Cc1ccc(O)cc1)NC(=O)[C@H](CC(N)=O)NC(=O)[C@@H]1CCCN1C(=O)[C@H](CCC(N)=O)NC(=O)[C@H](Cc1ccc(O)cc1)NC(=O)[C@H](CC(=O)O)NC(=O)[C@H](CCCCN)NC(=O)[C@H](CCCCN)NC(=O)[C@H](C)NC(=O)[C@H](CCCCN)NC(=O)[C@H](CCCCN)NC(=O)[C@H](CCCNC(=N)N)NC(=O)[C@H](CCCCN)NC(=O)[C@H](CCCCN)NC(=O)[C@@H](NC(=O)[C@H](Cc1c[nH]cn1)NC(=O)[C@H](CC(=O)O)NC(=O)[C@H](CC(N)=O)NC(=O)[C@H](CCCNC(=N)N)NC(=O)[C@H](CC(=O)O)NC(=O)CNC(=O)[C@H](CCCNC(=N)N)NC(=O)[C@H](CC(N)=O)NC(=O)[C@H](CCC(=O)O)NC(=O)[C@H](CCCCN)NC(=O)[C@H](CO)NC(=O)[C@H](CCCNC(=N)N)NC(=O)[C@H](CCCCN)NC(=O)[C@@H]1CCCN1C(=O)[C@H](CC(N)=O)NC(=O)CNC(=O)[C@H](CCC(N)=O)NC(=O)[C@@H]1CCCN1C(=O)[C@@H](NC(=O)[C@H](CC(N)=O)NC(=O)CNC(=O)[C@H](CCC(N)=O)NC(=O)[C@@H]1CCCN1)C(C)C)C(C)C)[C@@H](C)CC)C(=O)O [AKAP18δ-N (55–98)]
CaMKIIδ-T287D-catalyzed phosphorylation of Thr17 in PLN [7]: reduced

CaM binding, ELISA-based assay [8]: confirmed
SPR binding to CaMKIIδ-T287D (in words) [9]: bound strongly
kon ([10]; read-out: association rate constant (ka)): 130 M⁻¹ s⁻¹
koff ([10]; read-out: dissociation rate constant (kd)): 0.00053 s⁻¹
effect on CaMKIIδ-T287D activity (in words) [11]: inhibitory
precipitation with CaM-agarose [12]: precipitated with CaM-agarose
Compound: CC[C@H](C)[C@H](NC(=O)[C@@H]1CCCN1C(=O)[C@@H](NC(=O)[C@H](CO)NC(=O)[C@H](CC(C)C)NC(=O)[C@H](Cc1ccccc1)NC(=O)[C@H](Cc1ccc(O)cc1)NC(=O)[C@H](CC(N)=O)NC(=O)[C@@H]1CCCN1C(=O)[C@H](CCC(N)=O)NC(=O)[C@H](Cc1ccc(O)cc1)NC(=O)[C@H](CC(=O)O)NC(=O)[C@H](CCCCN)NC(=O)[C@H](CCCCN)NC(=O)[C@H](C)NC(=O)[C@H](CCCCN)NC(=O)[C@H](CCCCN)NC(=O)[C@H](CCCNC(=N)N)NC(=O)[C@H](CCCCN)NC(=O)[C@@H](N)CCCCN)[C@@H](C)CC)C(=O)O [AKAP18δ-N (79–98)] (H-KKRKKAKKDYQPNYFLSIPI-OH; N-terminus and C-terminus assumed)
